The source of these data is ChEMBL document CHEMBL1147802, “Diarylacetylene piperidinyl amides as novel anxiolytics” (Bioorg Med Chem Lett, 2006).

What is called inhibition is the change of the read-out against control, counted positive when it falls. Usually IC50 stands for the concentration that inhibits the measured activity by half. One may read the bioavailability as the share of a dose that reaches the circulation, judged against a reference dose that is usually intravenous. As a reminder, the half-life is the time needed for the level to fall by half in the phase considered.

The target of series [1] is T1, Substance-P receptor (Homo sapiens, UniProt P25103). In words: Inhibition of human NK1 receptor expressed in U373MG cells at 10 uM. Format: cell-based. Particulars: U-373MG ATCC.
T1 sequence (P25103 whole entry): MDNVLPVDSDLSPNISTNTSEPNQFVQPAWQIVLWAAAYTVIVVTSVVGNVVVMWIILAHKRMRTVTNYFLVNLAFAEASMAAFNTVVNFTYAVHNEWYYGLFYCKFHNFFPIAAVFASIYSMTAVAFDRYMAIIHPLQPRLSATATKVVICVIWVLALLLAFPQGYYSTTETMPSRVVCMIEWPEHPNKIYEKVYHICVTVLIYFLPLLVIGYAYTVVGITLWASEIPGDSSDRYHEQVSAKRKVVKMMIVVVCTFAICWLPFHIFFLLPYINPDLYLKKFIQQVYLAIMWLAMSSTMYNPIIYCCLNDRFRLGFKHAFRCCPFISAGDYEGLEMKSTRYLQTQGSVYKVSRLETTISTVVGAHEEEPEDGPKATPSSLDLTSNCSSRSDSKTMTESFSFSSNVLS
Series [2] concerns the target T2, Substance-K receptor (Homo sapiens) (UniProt P21452).
T2 sequence (whole entry): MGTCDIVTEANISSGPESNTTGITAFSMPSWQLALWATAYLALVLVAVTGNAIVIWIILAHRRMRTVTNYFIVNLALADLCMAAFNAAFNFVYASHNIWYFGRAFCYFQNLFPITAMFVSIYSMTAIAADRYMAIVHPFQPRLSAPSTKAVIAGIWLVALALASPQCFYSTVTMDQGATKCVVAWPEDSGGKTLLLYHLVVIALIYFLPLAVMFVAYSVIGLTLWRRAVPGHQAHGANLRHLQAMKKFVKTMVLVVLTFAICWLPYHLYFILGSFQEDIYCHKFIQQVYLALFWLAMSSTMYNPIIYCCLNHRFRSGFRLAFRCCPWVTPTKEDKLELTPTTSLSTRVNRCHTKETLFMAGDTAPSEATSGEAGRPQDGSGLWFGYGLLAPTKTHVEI
The series is described as follows: Inhibition of human NK2 receptor expressed in CHO cells at 10 uM. Format: cell-based.

Series [3] addresses T1, Substance-P receptor. The series is described as follows: Inhibition of human NK1 receptor expressed in U373MG cells. It is filed as cell-based, U-373MG ATCC.
For series [4], the target named is T3, Substance-K receptor (Homo sapiens, UniProt P21452).
T3 sequence (P21452 whole entry): T2 sequence (whole entry)
In words: Inhibition of human NK2 receptor expressed in CHO cells. It is filed as cell-based.

A short description of series [5]: Oral bioavailability in rat at 3 mg/kg, po. It is filed as ADME, organism-based. Particulars: in vivo.
A short description of series [6]: Oral bioavailability in rat at 10 mg/kg, po. It is filed as ADME, organism-based. Particulars: in vivo.
Series [7] in a line: Stability in rat liver microsomes after 90 min. It is filed as ADME, Microsome. Particulars: read-out: Stability.
The subject of series [8] is Mus musculus. The series is described as follows: Anxiolytic activity in orally dosed mouse assessed as reversal of DOI-induced head shake. Particulars: po, read-out: MED. It is filed as functional.
In series [9] the test system is Mus musculus. The series is described as follows: Anxiolytic activity in mouse after oral administration by EPM test. Format: functional. Particulars: read-out: MED.
Series [10] is described as follows: Stability in human liver microsomes after 90 min. Particulars: read-out: Stability. Format: ADME, Microsome. In general terms: Liver microsomes are vesicles of endoplasmic reticulum, rich in cytochrome P450 enzymes.
Series [11] is described as follows: Stability in human liver microsomes after 60 min. It is filed as ADME, Microsome. Particulars: read-out: Stability.
Series [12] can be described thus: Bioavailability in cynomolgus monkey. Particulars: in vivo. It is filed as ADME, organism-based, Macaca fascicularis.
A short description of series [13]: Stability in rat liver microsomes after 60 min. Format: ADME, Microsome. Particulars: read-out: Stability.
The nature of series [14]: Oral bioavailability in rat at 15 mg/kg, po. Format: ADME, organism-based. Particulars: in vivo.
A short description of series [15]: Half life in cynomolgus monkey. It is filed as ADME, organism-based, Macaca fascicularis. Particulars: in vivo.
Series [16] is described as follows: Half life in rat at 15 mg/kg, po. Format: ADME, organism-based. Details: dose 15 mg/kg, route oral. Particulars: in vivo.
Series [17] is described as follows: Oral bioavailability in rat at 40 mg/kg, po. Format: ADME, organism-based. Particulars: in vivo.
Series [18] can be described thus: Half life in rat at 40 mg/kg, po. Format: ADME, organism-based. Set-up: dose 40 mg/kg, route oral. Particulars: in vivo.
For series [19], the species on record is Homo sapiens. In words: Inhibition of GABA transporter at 10 uM.

With `O=C(CC1CCN(C(=O)c2cccc(C#Cc3ccccn3)c2)CC1)Nc1ccc(F)cc1`, the inhibition in [1] and in series [2] was 96% each time. For the same compound, the 50% inhibitory concentration (IC50) in series [3] and in [4] was 1000 nM throughout.

On to `O=C(CC1CCN(C(=O)c2cccc(C#Cc3ccccn3)c2)CC1)Nc1ccc(O)cc1`, for which the bioavailability in series [5] and in [6] was < 2% in each case. Moreover, the inhibition in series [1] was determined as 18%. The remaining at 1.5 h is 97% in series [7] and 80% in [10]. The figures for the minimal effective dose in series [8] and in [9] were 20 mg/kg and 3 mg/kg, respectively.

For the compound `O=C(CC1CCN(C(=O)c2cccc(C#Cc3ccccn3)c2)CC1)Nc1ccccc1F`, the values for the inhibition in series [1] and in series [2] were 96% and 97%, respectively. Also, the half-inhibitory concentration (IC50) in series [3] turned out to be 640 nM; in series [4] it was 550 nM.

For `O=C(CC1CCN(C(=O)c2cccc(C#Cc3ccccn3)c2)CC1)Nc1ccc(F)cc1F`, the figures for the remaining at 1 h in series [11] and in series [13] were 15% and 0.1%, respectively. The figures for the bioavailability in [12] and in series [14] were 38% and 7%, respectively. Besides, the inhibition in [1] worked out at 16%; in [2], 8%. Also, the minimal effective dose was 0.1 mg/kg in series [8] and 1 mg/kg in series [9]. The half-life in [15] was 3.1 h; in series [16], 2.7 h.

Take `O=C(CC1CCN(C(=O)c2cccc(C#Cc3ccccc3)c2)CC1)Nc1ccccc1`: the inhibition worked out at 28% in [1] and 7% in series [2].

As to `O=C(CC1CCN(C(=O)c2cccc(C#Cc3ccccn3)c2)CC1)Nc1ccccc1`, the inhibition in series [1] stood at 37%; in [2] it was 11%; in [19] it was 60%. In addition, the bioavailability in [17] was determined as 65%. In addition, the values for the remaining at 1.5 h in [7] and in series [10] were 63% and 35%, respectively. In addition, the half-life in [18] is 3.1 h. The minimal effective dose in [8] worked out at 20 mg/kg; in series [9], 1 mg/kg.
